In patent publication US8143394B2, “Pyrido(3,2-d)pyrimidines useful for treating viral infections” (Gilead Sciences, Inc., priority 2006, dated 2012) one finds EC50 and CC50 data, which are given here for 26 molecules.

Series [1] concerns HCV replicon. Put plainly: Anti-HCV replicon assay (EC50, luciferase readout). It counts as cell-based. To be noted: Hepatitis C virus. On the procedure:
(§1) The anti-HCV activity of the pyrido[3,2-d]pyrimidine derivatives of this invention was tested in a human hepatoma Huh-7 cell line harbouring a HCV replicon. The assay comprised the following steps:
(§2) Step 1: Compound Preparation and Serial Dilution
(§3) • 1. for water soluble pyrido[3,2-d]pyrimidine derivatives, a volume of 500 μL of solution in cell media (DMEM, 10% FBS, P/S, L-Glutamine) was prepared with a concentration being twice the concentration of the starting final serial dilution concentration. A volume of 150 μL of the solution was added to the pre-specified wells in column 1 of a 96-well cell culture plate (PerkinElmer, white plate, cat. #6005181, for EC50 assay; black plate, cat. #6005182 for CC50 assay). The rest of the plate, columns 2-12, was filled with 100 μL of cell media. The plate was then placed on a Precision 2000 Workstation to start the serial dilution. Compounds were diluted three times each step from column 1 to column 10. Column 11 was used as a blank control (no compound added). • 2. for pyrido[3,2-d]pyrimidine derivatives requiring DMSO to dissolve, serial dilution is performed in 50% DMSO in a 384-well plate. A solution containing a compound at 100-fold concentration of the starting final serial dilution concentration was prepared in 50% DMSO and added to the pre-specified wells in column 1 of a polypropylene 384-well plate. The plate was then placed on a Precision 2000 Workstation to start the serial dilution. After the serial dilution, a volume of 2 μL of the solution was transferred from the 384-well plate to a 96-well cell culture plate containing 100 μL of cell media on a Biomek FX Workstation. The DMSO concentration in the final assay condition was 0.5% after cells are added to the plate and the total volume in each well is brought to 200 μL. Step 2: to each well of the serial dilution plate prepared above, 100 μL of cell media containing 6000 suspended Huh-7 HCV replicon cells was added with a Multidrop workstation. The plates were incubated for 3 days at 37° C. with 5% CO2. Step 3: Detection: • a) for the EC50 assay, the media in a 96-well cell culture plate was aspirated with a Biotek EL405 plate-washer. A volume of 200 μL of a solution containing a 1:1 mixture of cell-lysis buffer (Promega, Luciferase Cell Culture Lysis 5X Reagent, cat. #E1531) and luciferase substrate solution (Promega, Luciferase Assay, cat. # E4550) was added to each well of the plate with Multidrop. The plate was incubated for 30 minutes at room temperature before the luminescence signal was measured with a TopCount plate-reader. • b) for the CC50 assay, a volume of 100 μL of pre-mixed CellTiter-Glo (Promega, cat. # G7572) solution is added directly to the cell culture in each well of the plate and the luminescence signal is measured with a TopCount plate-reader after 10 minutes of incubation at room temperature.
(§4) Results in table 13 are expressed by the following data: • the 50% effective concentration (EC50), i.e. the concentration that protects 50% of the cell monolayer from virus-induced cythopathic effect, and • the 50% cytostatic concentration (CC50), i.e. the concentration that results in 50% inhibition of cell growth.

Series [2] is described as follows: CC50 assay (CellTiter-Glo) in Huh-7 HCV replicon cells. The conditions noted are these: human, 50% cytostatic concentration. It counts as cell-based, human. On the procedure: as §1, §2, §3, §4
A general note: ATP-based viability assays read luminescence as a measure of living cells.

[3] abbreviates: 72 h, human hepatoma Huh-7 cell line harbouring a HCV replicon, 3 days, luciferase, read-out: EC50.

SMILES strings stand for the structures. Like-named read-outs stand apart in the source and are kept apart here. A value given as a limit tells only on which side of the number the result lay.

For orientation: EC50 means the concentration giving half of the maximal effect. Broadly, the CC50 is the concentration giving 50% cytotoxicity. Read a high CC50 as lower toxicity to the cells. Regarding `CC(C)(N)C(=O)Nc1ccc(-c2ccc3nc(N)nc(O[C@@H]4CCOC4)c3n2)cc1` [Example 25, 2-Amino-N-{4-[2-amino-4-(tetrahydro-furan-3-yloxy)-pyrido[3,2-d]pyrimidin-6-yl]-phenyl}-2-methyl-propionamide], the 50% effective concentration (EC50) in series [1] (setting [3]) was < 300 nM. Besides, the CC50 at 3 days in series [2] was 10000 to 20000 nM.
Take `CS(=O)(=O)Nc1cccc(-c2ccc3nc(N)nc(O[C@@H]4CCOC4)c3n2)c1` [Example 26, N-{3-[2-Amino-4-(tetrahydro-furan-3-yloxy)-pyrido[3,2-d]pyrimidin-6-yl]-phenyl}-methanesulfonamide]: in series [1] (setting [3]), the EC50 is < 300 nM. The CC50 at 3 days in series [2] was > 20000 nM.
Consider `CC(C)C(=O)Nc1ccc(-c2ccc3nc(N)nc(O[C@H]4CCOC4)c3n2)cc1` [Example 27, N-{4-[2-Amino-4-(tetrahydro-furan-3-yloxy)-pyrido[3,2-d]pyrimidin-6-yl]-phenyl}-isobutyramide], for which the EC50 in series [1] (setting [3]) is < 300 nM. Also, in series [2], the CC50 at 3 days was > 20000 nM.
Turning to `Nc1nc(O[C@@H]2CCOC2)c2nc(-c3ccc(N4CCCC4=O)cc3)ccc2n1` [Example 28, 1-{4-[2-Amino-4-(tetrahydro-furan-3-yloxy)-pyrido[3,2-d]pyrimidin-6-yl]-phenyl}-pyrrolidin-2-one], in series [1] (setting [3]), the EC50 is < 300 nM. The CC50 at 3 days in series [2] was > 20000 nM.
On to `CC(C)Oc1nc(N)nc2ccc(-c3ccc(NC(=O)C(C)C)cc3)nc12` [Example 29, N-[4-(2-amino-4-isopropoxy-pyrido[3,2-d]pyrimidin-6-yl)-phenyl]-isobutyramide], for which the EC50 in series [1] (setting [3]) was < 300 nM. In addition, the CC50 at 3 days in series [2] is > 20000 nM.
As to `CCOc1nc(N)nc2ccc(-c3ccc(NC(=O)C4(N)CC4)c(F)c3)nc12` [Example 30, 1-Amino-cyclopropanecarboxylic acid [4-(2-amino-4-ethoxy-pyrido[3,2-d]pyrimidin-6-yl)-2-fluoro-phenyl]-amide], in series [1] (setting [3]), the EC50 is < 300 nM. The CC50 at 3 days in series [2] is > 20000 nM.
Consider `CCOc1nc(N)nc2ccc(-c3ccc(Nc4nccs4)cc3)nc12` [Example 31], for which the EC50 in series [1] (setting [3]) lay within 300 to 1000 nM. This molecule also yielded a CC50 at 3 days in series [2] of 10000 to 20000 nM.
In the case of `CCOc1nc(N)nc2ccc(-c3ccc(Nc4nncs4)cc3)nc12` [Example 32, 4-Ethoxy-6-[4-([1,3,4]thiadiazol-2-ylamino)-phenyl]-pyrido[3,2-d]pyrimidin-2-ylamine], the EC50 in series [1] (setting [3]) lay in the range of 300 to 1000 nM. In series [2], the CC50 at 3 days is > 20000 nM.
On the same counts, the results for `CCOc1nc(N)nc2ccc(-c3ccc(NC(=O)C4(O)CC4)cc3)nc12` [Example 33, 1-Hydroxy-cyclopropanecarboxylic acid [4-(2-amino-4-ethoxy-pyrido[3,2-d]pyrimidin-6-yl)-phenyl]-amide] are < 300 nM and > 20000 nM.
In the case of `CCOc1nc(N)nc2ccc(-c3ccc(NC(=O)[C@H](C)N)c(F)c3)nc12` [Example 34, 2-Amino-N-[4-(2-amino-4-ethoxy-pyrido[3,2-d]pyrimidin-6-yl)-2-fluoro-phenyl]-propanamide], the EC50 in series [1] (setting [3]) was < 300 nM. In series [2], the CC50 at 3 days is > 20000 nM.
Regarding `CCOc1nc(N)nc2ccc(-c3cccc(NS(=O)(=O)CC(F)(F)F)c3)nc12` [Example 35, 2,2,2-Trifluoro-ethanesulfonic acid [3-(2-amino-4-ethoxy-pyrido[3,2-d]pyrimidin-6-yl)-phenyl]-amide], in series [1] (setting [3]), the EC50 was in the range of 300 to 1000 nM. Further, in series [2], the CC50 at 3 days was > 20000 nM.
On the same counts, the results for `CCOc1nc(N)nc2ccc(-c3ccc(NC(=O)C4(N)CC4)cc3)nc12` [Example 36, 1-Amino-cyclopropanecarboxylic acid [4-(2-amino-4-ethoxy-pyrido[3,2-d]pyrimidin-6-yl)-phenyl]-amide] are < 300 nM and > 20000 nM.
As to `CCOc1nc(N)nc2ccc(-c3ccc(NC(=O)C(C)(C)N)cc3)nc12` [Example 37, 2-Amino-N-[4-(2-amino-4-ethoxy-pyrido[3,2-d]pyrimidin-6-yl)-phenyl]-2-methyl-propionamide], in series [1] (setting [3]), the EC50 was < 300 nM. For the same molecule, the CC50 at 3 days in series [2] was > 20000 nM.
In the case of `CCOc1nc(N)nc2ccc(-c3ccc(NC(=O)[C@H](C)N)c(OC)c3)nc12` [Example 38, 2-Amino-N-[4-(2-amino-4-ethoxy-pyrido[3,2-d]pyrimidin-6-yl)-2-methoxy-phenyl]-propionamide], in series [1] (setting [3]), the EC50 is < 300 nM. Further, the 50% cytotoxic concentration (CC50) at 3 days in series [2] is > 20000 nM.
On the same counts, the results for `CCOc1nc(N)nc2ccc(-c3ccc(NC(=O)C4CC4)cc3)nc12` [Example 39, Cyclopropanecarboxylic acid [4-(2-amino-4-ethoxy-pyrido[3,2-d]pyrimidin-6-yl)-phenyl]-amide] are < 300 nM and > 20000 nM.
Regarding `CCOc1nc(N)nc2ccc(-c3cccc(NS(=O)(=O)c4ccc(C)cc4)c3)nc12` [Example 40], the EC50 in series [1] (setting [3]) fell in the range of 300 to 1000 nM. Moreover, the CC50 at 3 days in series [2] was > 20000 nM.
In the case of `CCOc1nc(N)nc2ccc(-c3ccc(NC(=O)[C@@H](N)CO)cc3)nc12` [Example 41, 2-Amino-N-[4-(2-amino-4-ethoxy-pyrido[3,2-d]pyrimidin-6-yl)-phenyl]-3-hydroxy-propionamide], the EC50 in series [1] (setting [3]) is < 300 nM. The CC50 at 3 days in series [2] is > 20000 nM.
For `CCOc1nc(N)nc2ccc(-c3ccc(NC(=O)[C@H](C)N)cc3)nc12` [Example 42, 2-Amino-N-[4-(2-amino-4-ethoxy-pyrido[3,2-d]pyrimidin-6-yl)-phenyl]-propionamide], in series [1] (setting [3]), the EC50 was < 300 nM. Also, the CC50 at 3 days in series [2] is > 20000 nM.
With `CCOc1nc(N)nc2ccc(-c3ccc(NS(C)(=O)=O)cc3)nc12` [Example 43, N-[4-(2-Amino-4-ethoxy-pyrido[3,2-d]pyrimidin-6-yl)-phenyl]-methanesulfonamide], the EC50 in series [1] (setting [3]) is > 1000 nM. Besides, the CC50 at 3 days in series [2] was > 20000 nM.
In series [1] (Huh-7, 72 h), `CCOc1nc(N)nc2ccc(-c3ccc(NC(=O)OC)cc3)nc12` [Example 44, [4-(2-Amino-4-ethoxy-pyrido[3,2-d]pyrimidin-6-yl)-phenyl]-carbamic acid methyl ester] had an EC50 of 300 to 1000 nM. Further, in series [2], the CC50 at 3 days is > 20000 nM.
For `CCOc1nc(N)nc2ccc(-c3cccc(NS(C)(=O)=O)c3)nc12` [Example 45, N-[3-(2-Amino-4-ethoxy-pyrido[3,2-d]pyrimidin-6-yl)-phenyl]-methanesulfonamide], in series [1] (setting [3]), the EC50 was < 300 nM. For the same molecule, the CC50 at 3 days in series [2] was > 20000 nM.
Regarding `CCOc1nc(N)nc2ccc(-c3ccc(NC(=O)CC)cc3)nc12` [Example 46, N-[4-(2-Amino-4-ethoxy-pyrido[3,2-d]pyrimidin-6-yl)-phenyl]-propionamide], the EC50 in series [1] (setting [3]) was < 300 nM. In series [2], the CC50 at 3 days was > 20000 nM.
For the molecule `CCOc1nc(N)nc2ccc(-c3ncc(N)s3)nc12` [Example 47, 6-(5-amino-thiazol-2-yl)-4-ethoxy-pyrido[3,2-d]pyrimidin-2-ylamine], in series [1] (setting [3]), the EC50 was < 300 nM. In addition, the CC50 at 3 days in series [2] fell in the range of 10000 to 20000 nM.
As to `CCOc1nc(N)nc2ccc(-c3cccc(NS(=O)(=O)c4cnc(NC(C)=O)s4)c3)nc12` [Example 48, N-{5-[3-(2-Amino-4-ethoxy-pyrido[3,2-d]pyrimidin-6-yl)-phenylsulfamoyl]-thiazol-2-yl}-acetamide], in series [1] (setting [3]), the EC50 was < 300 nM. Besides, the CC50 at 3 days in series [2] is > 20000 nM.
Take `CCOc1nc(N)nc2ccc(-c3cccc(NS(=O)(=O)c4cn(C)cn4)c3)nc12` [Example 49, 1-Methyl-1H-imidazole-4-sulfonic acid [3-(2-amino-4-ethoxy-pyrido[3,2-d]pyrimidin-6-yl)-phenyl]-amide]: the EC50 in series [1] (setting [3]) lay within 300 to 1000 nM. Besides, the CC50 at 3 days in series [2] is > 20000 nM.
Regarding `CCOc1nc(N)nc2ccc(-c3cccc(NS(=O)(=O)c4c(C)noc4C)c3)nc12` [Example 50, 3,5-Dimethyl-isoxazole-4-sulfonic acid [3-(2-amino-4-ethoxy-pyrido[3,2-d]pyrimidin-6-yl)-phenyl]-amide], in series [1] (setting [3]), the EC50 lay within 300 to 1000 nM. Besides, in series [2], the CC50 at 3 days was > 20000 nM.
